Values joined by “and” are separate entries in the source; they are usually repeats but may differ in a detail not shown here. Identical values can stand only once. Like-named read-outs stand apart in the source and are kept apart here.
Legend:
[1] = target: neuraminidase of NP40-inactivated influenza A/Brisbane/59/2007(H1N1) (Influenza A virus, UniProt D5F1R0); test: In vitro neuraminidase assay vs. NP40-inactivated influenza virus; format: biochemical
neuraminidase = conditions: background statement; cited from earlier work
[2] = target: recombinant H1N1 neuraminidase (Influenza A virus (strain A/Puerto Rico/8/1934 H1N1), UniProt P03468); test: biochemical; format: biochemical
Chain of recombinant H1N1 neuraminidase (P03468 36-454 limits assumed): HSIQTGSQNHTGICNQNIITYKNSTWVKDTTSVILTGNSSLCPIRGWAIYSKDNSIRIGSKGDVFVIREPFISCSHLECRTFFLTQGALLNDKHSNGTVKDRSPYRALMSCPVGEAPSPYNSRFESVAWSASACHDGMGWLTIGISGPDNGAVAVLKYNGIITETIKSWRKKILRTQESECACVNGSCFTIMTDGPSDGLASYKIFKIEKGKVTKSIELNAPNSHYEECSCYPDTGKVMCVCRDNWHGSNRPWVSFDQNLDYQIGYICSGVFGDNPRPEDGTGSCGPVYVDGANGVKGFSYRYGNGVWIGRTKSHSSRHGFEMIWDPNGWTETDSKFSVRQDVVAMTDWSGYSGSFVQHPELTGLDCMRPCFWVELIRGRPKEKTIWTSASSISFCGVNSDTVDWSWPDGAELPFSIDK

[3] = NP40-inactivated influenza A/Brisbane/59/2007(H1N1), read-out: IC50
[4] = NP40-inactivated virus, Lineweaver-Burk analysis

Chain of neuraminidase of NP40-inactivated influenza A/Brisbane/59/2007(H1N1) (D5F1R0 1-470): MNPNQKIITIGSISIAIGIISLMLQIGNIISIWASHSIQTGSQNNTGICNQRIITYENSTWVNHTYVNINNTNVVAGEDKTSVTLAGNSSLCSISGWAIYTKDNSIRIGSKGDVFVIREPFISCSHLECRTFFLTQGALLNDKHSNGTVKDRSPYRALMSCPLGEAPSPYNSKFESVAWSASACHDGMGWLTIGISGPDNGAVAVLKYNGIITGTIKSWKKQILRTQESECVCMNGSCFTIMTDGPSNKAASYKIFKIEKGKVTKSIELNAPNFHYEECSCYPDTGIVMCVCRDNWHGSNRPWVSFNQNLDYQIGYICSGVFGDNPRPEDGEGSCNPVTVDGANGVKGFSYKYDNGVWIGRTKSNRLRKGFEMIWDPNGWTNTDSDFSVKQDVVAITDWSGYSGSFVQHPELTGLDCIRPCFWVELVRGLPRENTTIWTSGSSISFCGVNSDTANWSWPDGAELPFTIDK

N=C(N)N[C@@H]1C[C@](O)(C(=O)O)[C@H]2CCS(=O)(=O)[C@@H]12 [Compound 27]
IC50 [1, 3]: 3.7 mM and 3.8 mM | Inhibition Mode [1, 4]: competitive | Ki ([1]; NP40-inactivated virus, estimated from Km versus inhibitor concentration, read-out: Ki): 1000 µM

CCOC(=O)C1=C[C@@H](OC(CC)CC)[C@H](NC(C)=O)[C@@H](N)C1 [oseltamivir]
effective concentration as neuraminidase inhibitor (neuraminidase): around 1 nM

CCC(CC)[C@H](NC(C)=O)[C@@H]1[C@H](O)[C@@H](C(=O)O)C[C@H]1N=C(N)N [peramivir]
potency relative to oseltamivir (neuraminidase): roughly ten-fold

C[C@@H]1C[C@](O)(C(=O)O)[C@H]2CCS(=O)(=O)[C@@H]12 [Compound 20]
IC50 [2]: 4 mM | Inhibition Mode [2]: mixed | inhibition of commercially available recombinant H1N1 neuraminidase [2]: dose-dependent inhibition

C[C@@H]1C[C@](O)(C(=O)O)[C@H]2C[C@H](Cc3ccccc3)S(=O)(=O)[C@@H]12 [Compound 21]
IC50 [2]: > 10 mM

CC(=O)N[C@H]1CS(=O)(=O)[C@H]2[C@@H]1[C@H](N)C[C@@H]2C(=O)O [Compound 31]
IC50 [1, 3]: 0.092 mM | Inhibition Mode [1, 4]: competitive

CC(=O)N[C@H]1CS(=O)(=O)[C@H]2[C@@H]1[C@H](NC(=N)N)C[C@@H]2C(=O)O [Compound 32]
Inhibition Mode [1]: competitive | Ki [1]: 5 µM | IC50 ([1]; IC50): 0.03 mM

From patent publication US8883846B2, “Synthesis of bicyclic compounds and method for their use as therapeutic agents” (priority 2010, dated 2014)
